According to paper PMC8408276, “Distinct neuropeptide-receptor modules regulate a sex-specific behavioral response to a pheromone” (Communications Biology, 2021):
“Also recorded” adds a separate entry of the source. Where a SMILES comes first, the peptide text is derived from it. Where no end group is shown, it is not given here.

Tests used:
NPR-10B = molecular target: T1, NPR-10B (Caenorhabditis elegans, UniProt Q6EUU1); experiment: In vitro GPCR activation assay (CHO-K1, aequorin, Gα16), NPR-10B; assay type: cell-based, C. elegans; details: for EC50: NPR-10B in CHO-K1 cells with mtAEQ aequorin and human Gα16, peptide 1 pM to 10 µM, n ≥ 6, Fig. 4i
T1 sequence (Q6EUU1 1-362): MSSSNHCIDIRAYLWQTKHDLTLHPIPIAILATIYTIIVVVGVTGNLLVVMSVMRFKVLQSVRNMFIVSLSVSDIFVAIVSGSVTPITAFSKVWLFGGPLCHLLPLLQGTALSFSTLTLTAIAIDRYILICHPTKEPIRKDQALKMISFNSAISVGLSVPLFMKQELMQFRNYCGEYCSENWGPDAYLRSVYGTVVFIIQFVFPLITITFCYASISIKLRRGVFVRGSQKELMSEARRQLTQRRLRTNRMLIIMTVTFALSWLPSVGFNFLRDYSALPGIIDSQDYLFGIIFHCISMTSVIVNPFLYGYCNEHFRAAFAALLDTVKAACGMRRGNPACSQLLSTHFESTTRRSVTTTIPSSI
Description: (§1) The GPCR activation assay was performed as previously described[66],[74]. Briefly, npr-10 and frpr-16 cDNAs were cloned into the pcDNA3.1 TOPO expression vector (Thermo Fisher Scientific). A CHO-K1 cell line (PerkinElmer, ES-000-A24) stably expressing apo-aequorin targeted to the mitochondria (mtAEQ) and human Gα16 was transiently transfected with the receptor cDNA construct or the empty pcDNA3.1 vector using Lipofectamine LTX and Plus reagent (Thermo Fisher Scientific). Cells were shifted to 28 °C one day later and allowed to incubate for 24 h. On the day of the assay, cells were collected in BSA medium (DMEM/Ham’s F12 with 15 mM HEPES, without phenol red, 0.1% BSA) and loaded with […] coelenterazine h (Thermo Fisher Scientific) for 4 h at room temperature. The incubated cells were then added to synthetic peptides dissolved in DMEM/BSA, and luminescence was measured for 30 s at 496 nm using a Mithras LB940 (Berthold Technologies) or MicroBeta LumiJet luminometer (PerkinElmer). After 30 s of readout, 0.1% triton X-100 was added to lyse the cells, resulting in a maximal calcium response that was measured for 10 s. After initial screening, concentration-response curves were constructed for HPLC-purified FLP-3 peptides by subjecting the transfected cells to each peptide in a concentration range from 1 pM to 10 µM. Cells transfected with an empty vector were used as a negative control. Assays were performed in triplicate on at least two independent days. Concentration-response curves were fitted using Prism v. 7 (nonlinear regression analysis with a sigmoidal concentration-response equation).

FRPR-16 = molecular target: T2, FRPR-16 (Caenorhabditis elegans, UniProt Q21957); experiment: In vitro GPCR activation assay (CHO-K1, aequorin, Gα16), FRPR-16; assay type: cell-based, C. elegans; details: for EC50: FRPR-16 in CHO-K1 cells with mtAEQ aequorin and human Gα16, peptide 1 pM to 10 µM, n ≥ 6, Fig. 4i
T2 sequence (Q21957 1-340): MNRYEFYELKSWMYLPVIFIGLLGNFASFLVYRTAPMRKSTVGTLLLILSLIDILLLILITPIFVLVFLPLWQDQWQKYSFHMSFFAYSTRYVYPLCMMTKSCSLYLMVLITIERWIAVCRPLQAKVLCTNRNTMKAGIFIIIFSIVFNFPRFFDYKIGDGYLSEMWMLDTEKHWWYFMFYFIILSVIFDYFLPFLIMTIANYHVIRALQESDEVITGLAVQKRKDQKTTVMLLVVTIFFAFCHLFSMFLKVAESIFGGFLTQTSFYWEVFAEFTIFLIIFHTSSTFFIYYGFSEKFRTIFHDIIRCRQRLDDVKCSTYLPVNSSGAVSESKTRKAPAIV
Description: as §1

C. elegans = experiment: Single worm attraction assay (SWAA); assay type: in vivo; details: flp-3 lof males; Supplementary Fig. 5
Description: We adapted the spot retention assay (Supplementary Fig. 1)[28],[38] to allow for better characterization of individual worm behavior and robust interrogation of attraction to small molecules. We first compared the attractiveness of 1 µM ascr#8 (Fig. 1a, inset) across multiple strains of C. elegans (the wild-type N2 strain, the high incidence of male him-5 and him-8 strains, and the chemosensory cilia defective osm-3), using our novel behavioral assay, the single worm attraction assay (SWAA) (Fig. 1a). In this assay, individual animals are placed directly into the spot of the ascaroside cue (A) while simultaneously removing any potential of male–male contact. A spatial control is included throughout the assay plate to allow us to investigate any innate differences in the number of visits to the well center, or the time spent therein, of which we have only found one strain to date with differences in male dwell time (Fig. 1a). Likewise, a vehicle control (V) is also included, to account of any changes in dwell time that are driven by the components of the vehicle. The outer forty wells of a 48-well suspension culture plate (Olympus Plastics, Cat #: 25-103) were seeded with 200 µL of standard NGM agar. To prepare the plates for the assay, they were acclimated to room temperature, at which point each well was seeded with 65 µL of OP50 E. coli. […] A single worm was placed in each of the 10 wells to be assayed, and the plate was transferred to a light source and camera and recorded for 15 m. […] Raw dwell time values were calculated by subtracting the time a worm exited the cue (center of the well in spatial controls), from the time it entered, as in the SRA[14]. This was determined per visit, and the average dwell time was calculated for each animal in the quadrant. Averages of the four-quadrant means were determined per plate, and a minimum of five plates were assayed per strain/condition. The mean raw dwell time across five plates was calculated and used for statistical analyses and graphical display. […] The number of visits per-worm was calculated, and the average visit count determined per quadrant, and per plate. The average visit count across five plates was calculated and used for statistical analyses and graphical display. An “attractive visit” was first determined for each plate as any visit greater than two standard deviations above the mean dwell time within the vehicle control for that plate. Any individual visit meeting this threshold was scored as a “1”, and any below was scored a “0”. The percent visits per-worm that were attractive was determined, and the average of each quadrant taken. […] The average percent of attractive visits across five plates was calculated and used for statistical analyses and graphical display. […]

NPR-10A = experiment: In vitro GPCR activation assay (CHO-K1, aequorin, Gα16), NPR-10A; assay type: cell-based, C. elegans; details: CHO-K1 aequorin/Gα16 calcium response; Supplementary Fig. 10a
Description: This peptide contains an R-to-K mutation within the C-terminal motif, which may explain the lack of receptor activation.
as §1, with “After initial screening, concentration-response curves were constructed for HPLC-purified FLP-3 peptides by subjecting the transfected cells to each peptide in a concentration range from 1 pM to 10 µM. Cells transfected with an empty vector were used as a negative control. Assays were performed in triplicate on at least two independent days. Concentration-response curves were fitted using Prism v. 7 (nonlinear regression analysis with a sigmoidal concentration-response equation).” left out

[1] = CHO-K1 aequorin/Gα16 calcium response

Molecule | EC50 (NPR-10B; luminescence 30 s) [µM] | EC50 (FRPR-16; luminescence 30 s) [µM] | other results
CSCC[C@H](NC(=O)[C@@H](NC(=O)CNC(=O)[C@H](Cc1ccccc1)NC(=O)[C@@H]1CCCN1C(=O)[C@H](CCC(=O)O)NC(=O)[C@H](C)NC(=O)[C@@H](N)CO)[C@@H](C)O)C(=O)N[C@@H](CCCNC(=N)N)C(=O)N[C@@H](Cc1ccccc1)C(N)=O [FLP-3-7, SAEPFGTMRFamide] (H-SAEPFGTMRF-NH2) | 0.439 | 0.0395 | –
CSCC[C@H](NC(=O)[C@@H](NC(=O)CNC(=O)[C@H](CC(C)C)NC(=O)[C@@H]1CCCN1C(=O)[C@H](CCC(=O)O)NC(=O)[C@H](CCC(=O)O)NC(=O)[C@H](C)NC(=O)[C@@H](N)CCC(=O)O)[C@@H](C)O)C(=O)N[C@@H](CCCNC(=N)N)C(=O)N[C@@H](Cc1ccccc1)C(N)=O [FLP-3-3, EAEEPLGTMRFamide] (H-EAEEPLGTMRF-NH2) | 0.867 | 0.288 | –
CSCC[C@H](NC(=O)[C@@H](NC(=O)CNC(=O)[C@H](CC(C)C)NC(=O)[C@@H]1CCCN1C(=O)[C@@H](N)CC(N)=O)[C@@H](C)O)C(=O)N[C@@H](CCCNC(=N)N)C(=O)N[C@@H](Cc1ccccc1)C(N)=O [FLP-3-4, NPLGTMRFamide] (H-NPLGTMRF-NH2) | 0.427 | 0.0107 | –
CSCC[C@H](NC(=O)[C@@H](NC(=O)CNC(=O)[C@H](Cc1ccccc1)NC(=O)[C@H](CC(C)C)NC(=O)[C@H](C)NC(=O)[C@H](CC(=O)O)NC(=O)[C@H](CCC(=O)O)NC(=O)[C@H](CO)NC(=O)[C@H](C)N)[C@@H](C)O)C(=O)N[C@@H](CCCNC(=N)N)C(=O)N[C@@H](Cc1ccccc1)C(N)=O [FLP-3-5, ASEDALFGTMRFamide] (H-ASEDALFGTMRF-NH2) | – | 0.0721 | EC50 (NPR-10B): 1.1 µM
CSCC[C@H](NC(=O)[C@@H](NC(=O)CNC(=O)[C@H](Cc1ccccc1)NC(=O)[C@@H]1CCCN1C(=O)[C@H](C)NC(=O)[C@H](CO)NC(=O)[C@H](CC(=O)O)NC(=O)[C@H](CC(=O)O)NC(=O)[C@H](C)NC(=O)[C@@H](N)CO)[C@@H](C)O)C(=O)N[C@@H](CCCNC(=N)N)C(=O)N[C@@H](Cc1ccccc1)C(N)=O [FLP-3-8, SADDSAPFGTMRFamide] (H-SADDSAPFGTMRF-NH2) | – | – | EC50 (FRPR-16): 1.6 µM
C[C@H](CCCC/C=C/C(=O)O)O[C@@H]1O[C@@H](C)[C@H](O)C[C@H]1O [ascr#3] | – | – | Attractive response, in words (C. elegans): no defect
EDGNAPFGTMKF-NH2 [FLP-3-6, flp-3 encoded peptide with R-to-K mutation within the C-terminal motif] | – | – | Activation of NPR-10 (NPR-10B), in words (NPR-10B; [1]): activated no receptors; also recorded: did not activate either receptor; Activation of NPR-10A, in words (NPR-10A): activated no receptors; Activation of FRPR-16, in words (FRPR-16; [1]): activated no receptors; also recorded: did not activate either receptor
CSCC[C@H](NC(=O)[C@@H](NC(=O)CNC(=O)[C@H](CC(C)C)NC(=O)[C@@H]1CCCN1C(=O)[C@@H](N)CO)[C@@H](C)O)C(=O)N[C@@H](CCCNC(=N)N)C(=O)N[C@@H](Cc1ccccc1)C(N)=O [FLP-3-1, SPLGTMRFamide] (H-SPLGTMRF-NH2) | 0.262 | 0.0074 | –
CSCC[C@H](NC(=O)[C@@H](NC(=O)CNC(=O)[C@H](Cc1ccccc1)NC(=O)[C@@H]1CCCN1C(=O)[C@@H](NC(=O)[C@H](CC(=O)O)NC(=O)[C@H](CC(N)=O)NC(=O)[C@H](CCC(=O)O)NC(=O)[C@@H]1CCCN1C(=O)[C@@H](N)CC(N)=O)[C@@H](C)O)[C@@H](C)O)C(=O)N[C@@H](CCCNC(=N)N)C(=O)N[C@@H](Cc1ccccc1)C(N)=O [FLP-3-9, NPENDTPFGTMRFamide] (H-NPENDTPFGTMRF-NH2) | 0.76 | 0.0883 | –
CSCC[C@H](NC(=O)[C@@H](NC(=O)CNC(=O)[C@H](CC(C)C)NC(=O)[C@@H]1CCCN1C(=O)[C@@H](N)[C@@H](C)O)[C@@H](C)O)C(=O)N[C@@H](CCCNC(=N)N)C(=O)N[C@@H](Cc1ccccc1)C(N)=O [FLP-3-2, TPLGTMRFamide] (H-TPLGTMRF-NH2) | 0.367 | 0.0317 | –
